Patent publication US20250059204A1, “FUSED BENZOISOXAZOLYL COMPOUNDS AS KAT6A INHIBITORS” (Aurigene Oncology Limited, priority 2021, published 2025)

The compounds below were run against human-KAT6A (MYST domain 507-778 aa) (Homo sapiens (Human), UniProt Q92794) (assay: KAT6A biochemical assay (TR-FRET)). Conditions: H4 peptide 200 nM, acetyl-CoA 600 nM.
Text: TR-FRET based method was used for assaying compounds of the present invention for KAT6A enzyme inhibitory activity. TR-FRET is homogeneous proximity assay where Europium-labelled anti-acetyl lysine antibody binds to the acetylated substrate labelled with biotin which in turn binds to streptavidin labelled APC fluorescence acceptor. Europium can transfer energy to APC in the complex and the interaction of two dye-labelled binding partners is detected by the energy transfer between a donor and an acceptor dye, and the subsequent light emission by the acceptor dye. KAT6A transfer an acetyl group from acetyl CoA to lysine amino acids of histones/target proteins. Typically, 5 μL of human-KAT6A (MYST domain 507-778 aa) in assay buffer (100 mM Tris HCl (pH 7.8), 15 mM NaCl, 1 mM EDTA, 0.01% Tween-20, 0.02% BSA, 1 mM DTT) is added to 384-well plate containing 5 μL of selected test compound in final 1% DMSO, serially diluted in 1:3 in an 8-10-point titration. The selected compound of the present invention and enzyme are incubated for 30 min at room temperature. Next, 5 μL of substrate mix containing histone H4 peptide and acetyl-CoA in assay buffer is added to the plate. The final concentrations of H4 peptide and acetyl-CoA are 200 nM and 600 nM respectively. Following 30 min reaction at room temperature, 5 μL of detection mix containing Europium labelled anti-acetyl antibody and streptavidin-APC is added to the reaction wells. The plate is further incubated for 45 min at room temperature and is read in TR-FRET mode (Ex:340 nm; Em: 615 nm and 665 nm) on a plate reader. The percent inhibition was calculated from the ratio of the fluorescence (FL) intensities [(F665/F615)×10,000) using the formula […]. IC50 values of the compounds were determined by fitting the dose-response data to sigmoidal curve fitting equation using Graph pad prism software V8.

Chain of human-KAT6A (MYST domain 507-778 aa) (Q92794 507-778): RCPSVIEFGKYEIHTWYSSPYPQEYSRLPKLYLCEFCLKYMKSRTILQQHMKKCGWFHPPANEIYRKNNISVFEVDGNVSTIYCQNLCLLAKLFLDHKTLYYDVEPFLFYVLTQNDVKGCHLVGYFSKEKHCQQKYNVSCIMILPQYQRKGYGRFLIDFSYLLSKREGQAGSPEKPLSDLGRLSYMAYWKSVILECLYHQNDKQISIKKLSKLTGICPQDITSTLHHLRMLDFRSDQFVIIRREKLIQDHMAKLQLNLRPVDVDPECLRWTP

Going from COc1cccc(OC)c1S(=O)(=O)Nc1noc2cc(Cn3cccn3)c3c(c12)OC(C)C3 (single isomer, unassigned) [Compound 22, N-(4-((1H-pyrazol-1-yl)methyl)-2-methyl-2,3-dihydrobenzofuro[7,6-d]isoxazol-8-yl)-2,6-dimethoxybenzenesulfonamide] to COCC1Cc2c(Cn3cccn3)cc3onc(NS(=O)(=O)c4c(OC)cccc4OC)c3c2O1 (single isomer, unassigned) [Compound 61, N-(4-((1H-pyrazol-1-yl)methyl)-2-(methoxymethyl)-2,3-dihydrobenzofuro[7,6-d]isoxazol-8-yl)-2,6-dimethoxybenzenesulfonamide], the IC50 rises from 21 nM to 280 nM (13-fold).

Going from COc1cccc(OC)c1S(=O)(=O)Nc1noc2cc(Cn3cccn3)c3c(c12)OC(C)C3 (single isomer, unassigned) [Compound 23, N-(4-((1H-pyrazol-1-yl)methyl)-2-methyl-2,3-dihydrobenzofuro[7,6-d]isoxazol-8-yl)-2,6-dimethoxybenzenesulfonamide] to COCC1Cc2c(Cn3cccn3)cc3onc(NS(=O)(=O)c4c(OC)cccc4OC)c3c2O1 (single isomer, unassigned) [Compound 62, N-(4-((1H-pyrazol-1-yl)methyl)-2-(methoxymethyl)-2,3-dihydrobenzofuro[7,6-d]isoxazol-8-yl)-2,6-dimethoxybenzenesulfonamide], the IC50 rises from 23 nM to 164 nM (7.1-fold). The first is the more potent here.

COc1cccc(OC)c1S(=O)(=O)Nc1noc2cc(-c3ccccc3)c3c(c12)OCC3 [Compound 1, 2,6-dimethoxy-N-(4-phenyl-2,3-dihydrobenzofuro[7,6-d]isoxazol-8-yl)benzenesulfonamide] and COc1cccc(OC)c1S(=O)(=O)Nc1noc2cc(-c3ccccc3)c3c(c12)OCCC3 [Compound 15] are within 1.5-fold of each other in IC50: 57 nM for the first, 45 nM for the second.

COc1cccc(OC)c1S(=O)(=O)Nc1noc2cc(Cn3cccn3)c3c(c12)OCC3 [Compound 2, N-(4-((1H-pyrazol-1-yl)methyl)-2,3-dihydrobenzofuro[7,6-d]isoxazol-8-yl)-2,6-dimethoxybenzenesulfonamide] and COc1cccc(OC)c1S(=O)(=O)Nc1noc2cc(Cn3ccnn3)c3c(c12)OCC3 [Compound 41] are within 1.5-fold of each other in IC50: 20 nM for the first, 25 nM for the second.

COc1cccc(OC)c1S(=O)(=O)Nc1noc2cc(-c3ccsc3)c3c(c12)OCC3 [Compound 3] and COc1cccc(OC)c1S(=O)(=O)Nc1noc2cc(-c3ccoc3)c3c(c12)OCC3 [Compound 4] are within 1.5-fold of each other in IC50: 43 nM for the first, 29 nM for the second.

Going from COc1cccc(OC)c1S(=O)(=O)Nc1noc2cc(-c3cccs3)c3c(c12)OCC3 [Compound 6] to COc1cccc(OC)c1S(=O)(=O)Nc1noc2cc(-c3ccc(C)s3)c3c(c12)OCC3 [Compound 12], the IC50 rises from 46 nM to 291 nM (6.3-fold).

First: COc1csc(-c2cc3onc(NS(=O)(=O)c4c(OC)cccc4OC)c3c3c2CCO3)c1 [Compound 7]
Second: COc1cccc(OC)c1S(=O)(=O)Nc1noc2cc(-c3cc(C)cs3)c3c(c12)OCC3 [Compound 13]
The IC50 of the first is 2.1-fold higher: 150 nM for the first, 71 nM for the second. The second is the more potent here.

COc1cccc(OC)c1S(=O)(=O)Nc1noc2cc(-c3ccco3)c3c(c12)OCC3 [Compound 8] and COc1cccc(OC)c1S(=O)(=O)Nc1noc2cc(-c3ccc(C)o3)c3c(c12)OCC3 [Compound 9] are within 1.5-fold of each other in IC50: 43 nM for the first, 36 nM for the second.

Going from COc1cccc(OC)c1S(=O)(=O)Nc1noc2cc(-c3scnc3C)c3c(c12)OCC3 [Compound 11] to COc1cccc(OC)c1S(=O)(=O)Nc1noc2cc(-c3cccnc3)c3c(c12)OCC3 [Compound 54], the IC50 rises from 88 nM to 158 nM (1.8-fold). The first is the more potent here.

Compared with COc1cccc(OC)c1S(=O)(=O)Nc1noc2cc(-c3ccccc3)c3c(c12)OCCC3C (stereo not drawn) [Compound 17], COc1cccc(OC)c1S(=O)(=O)Nc1noc2cc(-c3ccccc3)c3c(c12)OC(C)C3 (stereo not drawn) [Compound 18] is 2-fold lower in IC50: 74 nM for the first, 37 nM for the second.

COCc1cc2onc(NS(=O)(=O)c3c(OC)cccc3OC)c2c2c1CCO2 [Compound 19] and COc1cccc(OC)c1S(=O)(=O)Nc1noc2cc(Cn3cc(F)cn3)c3c(c12)OCC3 [Compound 34] are within 1.5-fold of each other in IC50: 31 nM for the first, 26 nM for the second.

First: COc1cccc(OC)c1S(=O)(=O)Nc1noc2cc(C(C)n3cccn3)c3c(c12)OCC3 (stereo not drawn) [Compound 20]
Second: COc1cccc(OC)c1S(=O)(=O)Nc1noc2cc(Cn3cc(Cl)cn3)c3c(c12)OCC3 [Compound 35]
The IC50 of the first is 1.9-fold higher: 51 nM for the first, 27 nM for the second. The second is the more potent here.

First: COc1cccc(OC)c1S(=O)(=O)Nc1noc2cc(Cn3cccn3)c3c(c12)OC(C)C3 (stereo not drawn) [Compound 21, N-(4-((1H-pyrazol-1-yl)methyl)-2-methyl-2,3-dihydrobenzofuro[7,6-d]isoxazol-8-yl)-2,6-dimethoxybenzenesulfonamide]
Second: COCC1Cc2c(Cn3cccn3)cc3onc(NS(=O)(=O)c4c(OC)cccc4OC)c3c2O1 (stereo not drawn) [Compound 60, N-(4-((1H-pyrazol-1-yl)methyl)-2-(methoxymethyl)-2,3-dihydrobenzofuro[7,6-d]isoxazol-8-yl)-2,6-dimethoxybenzenesulfonamide]
The IC50 of the first is 5.2-fold lower: 19 nM for the first, 99 nM for the second.

COc1cc(C(F)(F)F)ccc1S(=O)(=O)Nc1noc2cc(Cn3cccn3)c3c(c12)OCC3 [Compound 31] and COc1cc(C(C)(C)C)ccc1S(=O)(=O)Nc1noc2cc(Cn3cccn3)c3c(c12)OCC3 [Compound 47] are within 1.5-fold of each other in IC50: 18 nM for the first, 26 nM for the second.

First: COc1cccc(OC)c1S(=O)(=O)Nc1noc2cc(Cn3cc(C#N)cn3)c3c(c12)OCC3 [Compound 33]
Second: COc1cccc(OC)c1S(=O)(=O)Nc1noc2cc(Cn3cc(C(F)(F)F)cn3)c3c(c12)OCC3 [Compound 36]
The IC50 of the first is 1.7-fold lower: 127 nM for the first, 219 nM for the second.

First: COc1cccc(OC)c1S(=O)(=O)Nc1noc2cc(Cn3ccc(C(F)(F)F)n3)c3c(c12)OCC3 [Compound 37]
Second: O=S(=O)(Nc1noc2cc(Cn3cccn3)c3c(c12)OCC3)c1ccccc1OC(F)(F)F [Compound 50]
The IC50 of the first is 7.1-fold higher: 494 nM for the first, 70 nM for the second.

O=S(=O)(Nc1noc2cc(Cn3cccn3)c3c(c12)OCC3)c1ccccc1OCc1ccccn1 [Compound 38] and CCOc1ccccc1S(=O)(=O)Nc1noc2cc(Cn3cccn3)c3c(c12)OCC3 [Compound 52] are the same in IC50: 32 nM for the first, 32 nM for the second.

COc1cc(-n2cccn2)ccc1S(=O)(=O)Nc1noc2cc(Cn3cccn3)c3c(c12)OCC3 [Compound 39] and COc1ccc(-n2cccn2)cc1S(=O)(=O)Nc1noc2cc(Cn3cccn3)c3c(c12)OCC3 [Compound 40] are within 1.5-fold of each other in IC50: 22 nM for the first, 27 nM for the second.

COC(=O)c1ccc(OC)c(S(=O)(=O)Nc2noc3cc(Cn4cccn4)c4c(c23)OCC4)c1 [Compound 42] and COc1ccc(C(=O)O)cc1S(=O)(=O)Nc1noc2cc(Cn3cccn3)c3c(c12)OCC3 [Compound 63, 3—(N-(4-((1H-pyrazol-1-yl)methyl)-2,3-dihydrobenzofuro[7,6-d]isoxazol-8-yl)sulfamoyl)-4-methoxybenzoic Acid] are within 1.5-fold of each other in IC50: 26.6 nM for the first, 23 nM for the second.

Compared with COc1cc2c(cc1S(=O)(=O)Nc1noc3cc(Cn4cccn4)c4c(c13)OCC4)CCCC2 [Compound 43], COc1cc2c(cc1S(=O)(=O)Nc1noc3cc(Cn4cccn4)c4c(c13)OCC4)CCC2 [Compound 44] is 2.7-fold higher in IC50: 12 nM for the first, 32.7 nM for the second.

O=S(=O)(Nc1noc2cc(Cn3cccn3)c3c(c12)OCC3)c1c(Cl)cccc1Cl [Compound 45] and O=S(=O)(Nc1noc2cc(Cn3cccn3)c3c(c12)OCC3)c1c(F)cccc1F [Compound 48] are within 1.5-fold of each other in IC50: 40 nM for the first, 30 nM for the second.

Going from CCc1ccc(OC)c(S(=O)(=O)Nc2noc3cc(Cn4cccn4)c4c(c23)OCC4)c1 [Compound 46] to COc1ccc(C(C)(C)C)cc1S(=O)(=O)Nc1noc2cc(Cn3cccn3)c3c(c12)OCC3 [Compound 49], the IC50 rises from 20 nM to 76 nM (3.8-fold). The first is the more potent here.

O=S(=O)(Nc1noc2cc(Cn3cccn3)c3c(c12)OCC3)c1ccccc1F [Compound 51] and COc1ccccc1S(=O)(=O)Nc1noc2cc(Cn3cccn3)c3c(c12)OCC3 [Compound 55] are within 1.5-fold of each other in IC50: 35 nM for the first, 34 nM for the second.

Compared with O=S(=O)(Nc1noc2cc(Cn3cccn3)c3c(c12)OCC3)c1ccccc1-c1ccccc1 [Compound 53], COc1cc(C2CC2)ccc1S(=O)(=O)Nc1noc2cc(Cn3cccn3)c3c(c12)OCC3 [Compound 65, N-(4-((1H-pyrazol-1-yl)methyl)-2,3-dihydrobenzofuro[7,6-d]isoxazol-8-yl)-4-cyclopropyl-2-methoxybenzenesulfonamide] is 2.9-fold lower in IC50: 29 nM for the first, 10 nM for the second. The second is the more potent here.

Compared with COc1cccc(OC)c1S(=O)(=O)Nc1noc2cc(-c3ccccc3)c3c(c12)OC(C)(C)C3 [Compound 57], COc1cccc(OC)c1S(=O)(=O)Nc1noc2cc(-c3ccccc3)c3cc(C)oc3c12 [Compound 59] is 3.9-fold lower in IC50: 135 nM for the first, 35 nM for the second.

In the case of COc1cccc(OC)c1S(=O)(=O)Nc1noc2cc(Cn3cccn3)c3cc(C)oc3c12 [Compound 58], the IC50 is reported as 21 nM.
